Test results: patent US20220143222A1, “SUBCUTANEOUS AND INTRAMUSCULAR ADMINISTRATION OF PYRAZINE COMPOUNDS” (MediBeacon Inc., priority 2020, published 2022)
Read-outs that look alike come from different tables or passages of the source.

What was measured:
[1] = Transdermal fluorescence signal at the chest after injection; assay type: in vivo, pig
Source text: (§1) Juvenile Yorkshire pigs weighing approximately 25 kg were anesthetized, their body temperature stabilized, and an IV port surgically placed. A region approximately half-way along the line between the hip and knee joint was selected as the injection site and prepared by cleaning the skin and removing any exposed hair by shaving the selected area at least twice. Similarly, the site where two Quantum Leap fluorescent sensors (disclosed in U.S. Pat. No. 10,548,521) were to be positioned (chest) was prepared by washing and shaving. After the skin was dry the sensors were attached with commercially available skin adhesive and background skin auto-fluorescence measurements were recorded. After about 20 minutes of background fluorescence collection the subject animal was dosed either intravenously (animal 48019) or subcutaneously (animals 52771, 53701 09802, or 1539) or intramuscularly (09801) with PBS-1× formulated MB-102 at 3.2 mg/kg. Injection of the appropriate volume took place over about a minute. […] At this point glomerular elimination of MB-102 by the kidneys led to a decrease of fluorescence signal over time. Blood samples (1.5 mL) were taken immediately prior to the introduction of MB-102 (0 minutes) and at 15 minute intervals throughout the procedure. Blood was collected in BD vacutainer K2EDTA tubes, spun to plasma and stored at −80° C. until analyzed. Subsequently, the processed plasma samples were thawed, diluted with PBS-1× and analyzed by HPLC or UPLC and the concentration of MB-102 determined using standard analytical techniques. Further details for each animal are provided in the examples that follow.
(§2) A sterile Mesoderm needle pack was obtained. The needle array featured five (5), 4 mm×30 gauge (0.30 mm dia) luer-hub needles arranged four (4) in a circular, symmetrical pattern (30 mm diameter) about a central needle and were attached via a distribution channel and a second luer-hub to a primary source syringe (3 mL in total deliverable volume). MB-102 API was formulated as 60 mg/mL of sodium salt in 1×PBS and placed in 5 mL serum cap vials. Immediately prior to dosing, the primary syringe was filled with a slight excess of the required amount of formulated MB-102 to achieve 3.2 mg/kg and the needle cap replaced until the subject animal and fluorescence monitor were ready for the experiment to begin and the injection initiated. Subject pig 52771 was dosed with 1.2 mL of MB-102 formulated in PBS-1× (3.2 mg/kg). […] Subject animal fluorescence was obtained during the entire course of the experiment (8 hrs) and blood samples were collected every 15 minutes, processed and stored at −80° C. Comparison of IV MB-102 plasma concentration versus time and subcutaneous MB-102 (both at 3.2 mg/kg dose) plasma concentration versus time are shown in FIG. 1.
(§3) Experimental animal Yorkshire pig, 53701, was subject to subcutaneous (subQ) administration of MB-102 as described in Example 8. […] Plasma sampling was conducted as described in Example 8 and the results (Table 1) are plotted in FIG. 1.
(§4) Experimental animal Yorkshire pig, 09802, was subject to subcutaneous (subQ) administration of MB-102 using a single needle in the same protocol as Example 8 but substituting a 2 mL syringe equipped with a single 4 mm×30 g needle. […] Plasma sampling was conducted as described in Example 8 and the results (Table 1) are plotted in FIG. 1.
Experimental animal Yorkshire pig, 09801, was subject to Intramuscular (IM) administration of MB-102 using substantially the same procedure as Example 8, but substituting a 2 mL syringe equipped with a single 13 mm×27 g needle. […] Blood sampling and processing was as described in Example 8 and the results (Table 1) are plotted in FIG. 6.
Experimental animal Yorkshire pig, 1539, was subject to subcutaneous (subQ) administration of MB-102 using a single needle in the same protocol as Example 10. […]

[2] = MB-102 pig plasma concentration after subcutaneous dosing; assay type: in vivo; conditions: 3.2 mpk; for concentration at 15 min / concentration at 30 min / concentration at 45 min / concentration at 60 min / concentration at 75 min / concentration at 90 min / concentration at 105 min / concentration at 120 min / concentration at 135 min / concentration at 150 min / concentration at 165 min / concentration at 180 min / concentration at 195 min / concentration at 210 min / concentration at 225 min / concentration at 240 min / concentration at 255 min / concentration at 270 min / concentration at 285 min / concentration at 300 min / concentration at 315 min / concentration at 330 min / concentration at 345 min / concentration at 360 min: Yorkshire, pig, plasma, subcutaneous, 3.2 mg/kg, read-out: MB-102 Pig Plasma Conc.; for SUM (plasma conc. over time): 15-360 min
Source text: as §1, §2, §3, §4

time until fluorescence signal first observed ([1]; pig 1539, single needle subcutaneous): after a few minutes
time until fluorescence signal first observed ([1]; pig 09801, single needle intramuscular): after a few minutes
time until fluorescence signal first observed ([1]; pig 09802, single needle subcutaneous): after a few minutes
time until transdermal fluorescent signal detectable ([1]; pig 52771, multi-needle subcutaneous, 3.2 mg/kg): Within a few minutes
time until fluorescence signal first observed ([1]; pig 53701, multi-needle subcutaneous): after a few minutes
time until fluorescent skin signal at the chest observed ([1]; pigs, 3.2 mg/kg IV, subcutaneous or intramuscular, typical): within several minutes post injection
concentration at 15 min ([2]; pig 09802, SubQ): 6.67 µg/mL
concentration at 30 min ([2]; pig 09802, SubQ): 7.53 µg/mL
concentration at 45 min ([2]; pig 09802, SubQ): 6.85 µg/mL
concentration at 60 min ([2]; pig 09802, SubQ): 6.54 µg/mL
concentration at 75 min ([2]; pig 09802, SubQ): 5.49 µg/mL
concentration at 90 min ([2]; pig 09802, SubQ): 5.26 µg/mL
concentration at 105 min ([2]; pig 09802, SubQ): 4.81 µg/mL
concentration at 120 min ([2]; pig 09802, SubQ): 4.41 µg/mL
concentration at 135 min ([2]; pig 09802, SubQ): 3.9 µg/mL
concentration at 150 min ([2]; pig 09802, SubQ): 3.71 µg/mL
concentration at 165 min ([2]; pig 09802, SubQ): 3.5 µg/mL
concentration at 180 min ([2]; pig 09802, SubQ): 3.07 µg/mL
concentration at 195 min ([2]; pig 09802, SubQ): 2.72 µg/mL
concentration at 210 min ([2]; pig 09802, SubQ): 2.5 µg/mL
concentration at 225 min ([2]; pig 09802, SubQ): 2.19 µg/mL
concentration at 240 min ([2]; pig 09802, SubQ): 1.99 µg/mL
concentration at 255 min ([2]; pig 09802, SubQ): 1.73 µg/mL
concentration at 270 min ([2]; pig 09802, SubQ): 1.6 µg/mL
concentration at 285 min ([2]; pig 09802, SubQ): 1.43 µg/mL
concentration at 300 min ([2]; pig 09802, SubQ): 1.29 µg/mL
concentration at 315 min ([2]; pig 09802, SubQ): 1.18 µg/mL
concentration at 330 min ([2]; pig 09802, SubQ): 1.03 µg/mL
concentration at 345 min ([2]; pig 09802, SubQ): 0.914 µg/mL
concentration at 360 min ([2]; pig 09802, SubQ): 0.829 µg/mL
concentration at 15 min ([2]; pig 52771, SubQ): 6.13 µg/mL
concentration at 30 min ([2]; pig 52771, SubQ): 8.51 µg/mL
concentration at 45 min ([2]; pig 52771, SubQ): 8.79 µg/mL
concentration at 60 min ([2]; pig 52771, SubQ): 8.85 µg/mL
concentration at 75 min ([2]; pig 52771, SubQ): 7.84 µg/mL
concentration at 90 min ([2]; pig 52771, SubQ): 6.92 µg/mL
concentration at 105 min ([2]; pig 52771, SubQ): 6.07 µg/mL
concentration at 120 min ([2]; pig 52771, SubQ): 5.56 µg/mL
concentration at 135 min ([2]; pig 52771, SubQ): 5 µg/mL
concentration at 150 min ([2]; pig 52771, SubQ): 4.41 µg/mL
concentration at 165 min ([2]; pig 52771, SubQ): 3.95 µg/mL
concentration at 180 min ([2]; pig 52771, SubQ): 3.48 µg/mL
concentration at 195 min ([2]; pig 52771, SubQ): 3.19 µg/mL
concentration at 210 min ([2]; pig 52771, SubQ): 2.83 µg/mL
concentration at 225 min ([2]; pig 52771, SubQ): 2.5 µg/mL
concentration at 240 min ([2]; pig 52771, SubQ): 2.25 µg/mL
concentration at 255 min ([2]; pig 52771, SubQ): 2 µg/mL
concentration at 270 min ([2]; pig 52771, SubQ): 1.76 µg/mL
concentration at 285 min ([2]; pig 52771, SubQ): 1.63 µg/mL
concentration at 330 min ([2]; pig 52771, SubQ): 1.21 µg/mL
concentration at 345 min ([2]; pig 52771, SubQ): 1.14 µg/mL
concentration at 360 min ([2]; pig 52771, SubQ): 1 µg/mL
concentration at 15 min ([2]; pig 53701, SubQ): 8.11 µg/mL
concentration at 30 min ([2]; pig 53701, SubQ): 7.41 µg/mL
concentration at 45 min ([2]; pig 53701, SubQ): 6.62 µg/mL
concentration at 60 min ([2]; pig 53701, SubQ): 5.94 µg/mL
concentration at 75 min ([2]; pig 53701, SubQ): 5.26 µg/mL
concentration at 90 min ([2]; pig 53701, SubQ): 4.71 µg/mL
concentration at 105 min ([2]; pig 53701, SubQ): 4.23 µg/mL
concentration at 120 min ([2]; pig 53701, SubQ): 3.67 µg/mL
concentration at 135 min ([2]; pig 53701, SubQ): 3.25 µg/mL
concentration at 150 min ([2]; pig 53701, SubQ): 3 µg/mL
concentration at 165 min ([2]; pig 53701, SubQ): 2.64 µg/mL
concentration at 180 min ([2]; pig 53701, SubQ): 2.39 µg/mL
concentration at 195 min ([2]; pig 53701, SubQ): 2.17 µg/mL
concentration at 210 min ([2]; pig 53701, SubQ): 1.94 µg/mL
concentration at 225 min ([2]; pig 53701, SubQ): 1.67 µg/mL
concentration at 240 min ([2]; pig 53701, SubQ): 1.51 µg/mL
concentration at 255 min ([2]; pig 53701, SubQ): 1.35 µg/mL
concentration at 270 min ([2]; pig 53701, SubQ): 1.23 µg/mL
concentration at 285 min ([2]; pig 53701, SubQ): 1.09 µg/mL
concentration at 300 min ([2]; pig 53701, SubQ): 0.987 µg/mL
concentration at 315 min ([2]; pig 53701, SubQ): 0.867 µg/mL
concentration at 330 min ([2]; pig 53701, SubQ): 0.8 µg/mL
concentration at 345 min ([2]; pig 53701, SubQ): 0.704 µg/mL
concentration at 360 min ([2]; pig 53701, SubQ): 0.631 µg/mL
SUM (plasma conc. over time) ([2]; pig 09802, SubQ): 1,210,924 ng/mL*min
SUM (plasma conc. over time) ([2]; pig 52771, SubQ): 1,413,823 ng/mL*min
SUM (plasma conc. over time) ([2]; pig 53701, SubQ): 1,077,956 ng/mL*min
SMILES: Nc1nc(C(=O)N[C@H](CO)C(=O)O)c(N)nc1C(=O)N[C@H](CO)C(=O)O [MB-102, 3,6-diamino-2,5-bis{N-[(1R)-1-carboxy-2-hydroxyethyl]carbamoyl}pyrazine]
